# Activity calls are given as the source filed them. The rule behind the calls is not given here.
# Experiments:
# Enterococcus faecium [1] = test: Antibacterial activity against Enterococcus faecium clinical isolate 1088228 assessed as inhibition of bacterial growth by CLSI protocol based broth microdilution method; assay type: functional
# Enterococcus faecalis [2] = test: Antibacterial activity against Enterococcus faecalis clinical isolate 1088051 assessed as inhibition of bacterial growth by CLSI protocol based broth microdilution method; assay type: functional
# Staphylococcus aureus [3] = test: Antibacterial activity against Staphylococcus aureus clinical isolate 1088626 assessed as inhibition of bacterial growth by CLSI protocol based broth microdilution method; assay type: functional
# Enterococcus faecalis [4] = test: Antibacterial activity against Enterococcus faecalis clinical isolate 1091563 assessed as inhibition of bacterial growth by CLSI protocol based broth microdilution method; assay type: functional
# Staphylococcus aureus [5] = test: Antibacterial activity against Staphylococcus aureus clinical isolate 1088060 assessed as inhibition of bacterial growth by CLSI protocol based broth microdilution method; assay type: functional
# Staphylococcus aureus [6] = test: Antibacterial activity against Staphylococcus aureus clinical isolate 1088105 assessed as inhibition of bacterial growth by CLSI protocol based broth microdilution method; assay type: functional
# Enterococcus faecium [7] = test: Antibacterial activity against Enterococcus faecium clinical isolate 1088168 assessed as inhibition of bacterial growth by CLSI protocol based broth microdilution method; assay type: functional
# Enterococcus faecium [8] = test: Antibacterial activity against Enterococcus faecium clinical isolate 1088925 assessed as inhibition of bacterial growth by CLSI protocol based broth microdilution method; assay type: functional
# Enterococcus faecium [9] = test: Antibacterial activity against Enterococcus faecium clinical isolate 1089544 assessed as inhibition of bacterial growth by CLSI protocol based broth microdilution method; assay type: functional
# Staphylococcus aureus [10] = test: Antibacterial activity against Staphylococcus aureus clinical isolate 1089106 assessed as inhibition of bacterial growth by CLSI protocol based broth microdilution method; assay type: functional
# Staphylococcus aureus [11] = test: Antibacterial activity against Staphylococcus aureus clinical isolate 1088610 assessed as inhibition of bacterial growth by CLSI protocol based broth microdilution method; assay type: functional
# Enterococcus faecalis [12] = test: Antibacterial activity against Enterococcus faecalis clinical isolate 1091720 assessed as inhibition of bacterial growth by CLSI protocol based broth microdilution method; assay type: functional
# Staphylococcus aureus [13] = test: Antibacterial activity against Staphylococcus aureus clinical isolate 1088064 assessed as inhibition of bacterial growth by CLSI protocol based broth microdilution method; assay type: functional
# Enterococcus faecalis [14] = test: Antibacterial activity against Enterococcus faecalis clinical isolate 1094112 assessed as inhibition of bacterial growth by CLSI protocol based broth microdilution method; assay type: functional
# Staphylococcus aureus [15] = test: Antibacterial activity against Staphylococcus aureus clinical isolate 1088888 assessed as inhibition of bacterial growth by CLSI protocol based broth microdilution method; assay type: functional
# Enterococcus faecalis [16] = test: Antibacterial activity against Enterococcus faecalis clinical isolate 1100440 assessed as inhibition of bacterial growth by CLSI protocol based broth microdilution method; assay type: functional
# Enterococcus faecium [17] = test: Antibacterial activity against Enterococcus faecium clinical isolate 1091282 assessed as inhibition of bacterial growth by CLSI protocol based broth microdilution method; assay type: functional
# Staphylococcus aureus [18] = test: Inhibition of protein synthesis in Staphylococcus aureus ATCC 29213 at 8 times MIC preincubated for 30 mins followed by [3H]-leucine and measured after 40 mins by [3H]-leucine incorporation based beta scintillation counter analysis; assay type: functional; settings: time 70.0 min
# Staphylococcus aureus [19] = test: Bactericidal activity against Staphylococcus aureus ATCC 700699 persisters assessed as log reduction in colony forming unit at 64 times MIC after 4 hrs by colony counting method; assay type: functional, organism-based
# Staphylococcus aureus [20] = test: Bactericidal activity against Staphylococcus aureus ATCC 700699 assessed as bacteria elimination at 4 times MIC and measured after 6 hrs by time-kill assay; assay type: functional
# Staphylococcus aureus [21] = test: Antibacterial activity against antibiotic susceptible Staphylococcus aureus ATCC 25923 assessed as inhibition of bacterial growth by CLSI protocol based broth microdilution method; assay type: functional
# Staphylococcus aureus [22] = test: Antibacterial activity against Staphylococcus aureus ATCC 25923 assessed as minimum bactericidal concentration incubated for 24 hrs by Calgary biofilm device assay; settings: ATCC 25923, 24 h
# Enterococcus faecalis [23] = test: Anti-biofilm activity against Enterococcus faecalis ATCC 29212 assessed as eradication of biofilm formation incubated for 24 hrs by Calgary biofilm device assay; assay type: functional
# Staphylococcus aureus [24] = test: Bactericidal activity against Staphylococcus aureus ATCC 700699 assessed as bacteria elimination at 4 times MIC and measured after 10 hrs by time-kill assay; assay type: functional, organism-based
# Staphylococcus aureus [25] = test: Antibacterial activity against antibiotic resistant Staphylococcus aureus BAA-2312 assessed as inhibition of bacterial growth by CLSI protocol based broth microdilution method; assay type: functional
# Staphylococcus aureus [26] = test: Anti-biofilm activity against Staphylococcus aureus ATCC 25923 assessed as eradication of biofilm formation incubated for 24 hrs by Calgary biofilm device assay; assay type: functional; settings: Staphylococcus aureus, ATCC 25923
# Enterococcus faecalis [27] = test: Anti-biofilm activity against Enterococcus faecalis ATCC 29212 assessed as minimum bactericidal concentration incubated for 24 hrs by Calgary biofilm device assay; settings: ATCC 29212, 24 h
# Bacillus subtilis = test: Antibacterial activity against antibiotic resistant Bacillus subtilis ATCC 6623 assessed as inhibition of bacterial growth by CLSI protocol based broth microdilution method; assay type: functional
# [28] = system: Staphylococcus epidermidis; test: Antibacterial activity against antibiotic resistant Staphylococcus epidermidis ATCC 700296 assessed as inhibition of bacterial growth by CLSI protocol based broth microdilution method; assay type: functional
# Staphylococcus aureus [29] = test: Antibacterial activity against antibiotic resistant Staphylococcus aureus ATCC 700699 assessed as inhibition of bacterial growth by CLSI protocol based broth microdilution method; assay type: functional
# Enterococcus faecalis [30] = test: Antibacterial activity against antibiotic susceptible Enterococcus faecalis ATCC 29212 assessed as inhibition of bacterial growth by CLSI protocol based broth microdilution method; assay type: functional
# Enterococcus faecium [31] = test: Antibacterial activity against vancomycin resistant Enterococcus faecium ATCC 700221 assessed as inhibition of bacterial growth by CLSI protocol based broth microdilution method; assay type: functional
# HEK293 = test: Cytotoxicity against human HEK293 cells reduction in cell viability at 74 ug/ml incubated for 24 hrs by resazurin cell viability assay; assay type: toxicity, cell-based; settings: hek293, 24 h, at 74 µg/mL
Molecule,MIC (Enterococcus faecium [1]),MIC (Enterococcus faecalis [2]),MIC (Staphylococcus aureus [3]),MIC (Enterococcus faecalis [4]),MIC (Staphylococcus aureus [5]),MIC (Staphylococcus aureus [6]),MIC (Enterococcus faecium [7]),MIC (Enterococcus faecium [8]),MIC (Enterococcus faecium [9]),MIC (Staphylococcus aureus [10]),MIC (Staphylococcus aureus [11]),MIC (Enterococcus faecalis [12]),MIC (Staphylococcus aureus [13]),MIC (Enterococcus faecalis [14]),MIC (Staphylococcus aureus [15]),MIC (Enterococcus faecalis [16]),MIC (Enterococcus faecium [17]),further results
Cc1onc(-c2ccccc2)c1C(=O)N[C@@H]1C(=O)N2[C@@H]1SC(C)(C)[C@@H]2C(=O)O [OXACILLIN],> 64 µg/mL,64 µg/mL,0.25 µg/mL,64 µg/mL,0.5 µg/mL,0.25 µg/mL,> 64 µg/mL,> 64 µg/mL,> 64 µg/mL,64 µg/mL,64 µg/mL,64 µg/mL,64 µg/mL,> 64 µg/mL,> 64 µg/mL,> 64 µg/mL,> 64 µg/mL,–
C[C@@H](O)[C@H]1C(=O)N2C(C(=O)O)=C(S[C@@H]3CN[C@H](C(=O)N(C)C)C3)[C@H](C)[C@H]12 [MEROPENEM],> 128 µg/mL,2 µg/mL,0.06 µg/mL,2 µg/mL,0.06 µg/mL,0.12 µg/mL,> 128 µg/mL,> 128 µg/mL,> 128 µg/mL,2 µg/mL,4 µg/mL,8 µg/mL,4 µg/mL,8 µg/mL,8 µg/mL,4 µg/mL,> 128 µg/mL,–
CC(=O)NC[C@H]1CN(c2ccc(N3CCOCC3)c(F)c2)C(=O)O1,–,–,–,–,–,–,–,–,–,–,–,–,–,–,–,–,–,inhibition (Staphylococcus aureus [18]): 70.7%
GENTAMICIN,–,–,–,–,–,–,–,–,–,–,–,–,–,–,–,–,–,log(activity) (Staphylococcus aureus [19]): 1; Activity (Staphylococcus aureus [20]): > 99.9%
CN[C@H](CC(C)C)C(=O)N[C@H]1C(=O)N[C@@H](CC(N)=O)C(=O)N[C@H]2C(=O)N[C@H]3C(=O)N[C@H](C(=O)N[C@H](C(=O)O)c4cc(O)cc(O)c4-c4cc3ccc4O)[C@H](O)c3ccc(c(Cl)c3)Oc3cc2cc(c3O[C@@H]2O[C@H](CO)[C@@H](O)[C@H](O)[C@H]2O[C@H]2C[C@](C)(N)[C@H](O)[C@H](C)O2)Oc2ccc(cc2Cl)[C@H]1O [VANCOMYCIN],> 32 µg/mL,> 32 µg/mL,–,> 32 µg/mL,–,–,> 32 µg/mL,> 32 µg/mL,> 32 µg/mL,–,–,> 32 µg/mL,–,> 32 µg/mL,–,> 32 µg/mL,> 32 µg/mL,MIC (Staphylococcus aureus [21]): 0.78 µg/mL; MBC (Staphylococcus aureus [22]): 6.25 µg/mL; MBEC (Enterococcus faecalis [23]): >50 µg/mL; Activity (Staphylococcus aureus [24]): Active; MIC (Staphylococcus aureus [25]): 0.78 µg/mL; MBEC (Staphylococcus aureus [26]): > 50 µg/mL; MBC (Enterococcus faecalis [27]): 25 µg/mL; MIC (Bacillus subtilis): 0.39 µg/mL; MIC [28]: 3.12 µg/mL; MIC (Staphylococcus aureus [29]): 3.12 µg/mL; MIC (Enterococcus faecalis [30]): 3.12 µg/mL; MIC (Enterococcus faecium [31]): > 50 µg/mL
CC/C(=C(\c1ccccc1)c1ccc(OCCN(C)C)cc1)c1ccccc1 [TAMOXIFEN],–,–,–,–,–,–,–,–,–,–,–,–,–,–,–,–,–,Activity (HEK293): 100%
